In US7041639B2, “Depsipeptide and congeners thereof for use as immunosuppressants” (XCYTE Therapies, Inc., priority 1999, dated 2006):

Key:
[1] = tested on: CD4 cells; assay: Proliferation by MTT assay, purified CD4 cell cultures; assay type: cell-based, human; conditions: for concentration with no significant effect on proliferation of CD4 cells / lowest concentration that completely inhibits proliferation of CD4 cells: MTT day 3; for lowest concentration that completely inhibits proliferation of CD4 cells: 2 hour incubation prior to stimulation
Procedure: Cells isolated from human blood are grown in X-vivo media (Biowhittaker Inc., Walkersville, Md.) and depending on use supplemented with or without 20 U/ml IL-2 (Boehringer Mannheim, Indianapolis, Ind.) and supplemented with 5% human serum (Biowhittaker), 2 mM Glutamine (Life Technologies, Rockville, Md.) and 20 mM HEPES (Life Technology). Jurkat E6-1 cells (ATCC, Manassas, Va.) are grown in RPMI 1640 (Life Technologies) supplemented with 10% fetal bovine serum (FBS) (Biowhittaker), 2 mM glutamine (Life Technologies), […] (Life Technologies), and […] (Life Technologies).
Buffy coats from healthy human volunteer donors are obtained (American Red Cross, Portland, Oreg.). Peripheral blood mononuclear cells (PBMC) are obtained using Lymphocyte Separation Media (ICN Pharmaceuticals, Costa Mesa, Calif.) according to the manufacturers' instructions.
Peripheral blood lymphocytes (PBL) are obtained from the PBMC fraction by incubation in a culture flask (Costar, Pittsburgh, Pa.) or with uncoated Dynabeads (Dynal, Oslo, Norway), 1×10^8 cells/ml, 2 beads/cell, 2 h at 37° C. Monocytes and macrophages are removed by adherence to the culture flask or phagocytoze the paramagnetic beads that are depleted by magnetic cell separation according to the manufacture's instruction (Dynal). CD4 cells are purified from the PBL fraction by incubation with 10 μg/ml of monoclonal antibodies against CD8 (clone G10-1), CD20 (clone IF5), CD14 (clone F13) and CD16 (Coulter), 10^8 cells/ml, 20 min at 4° C. After washing, cells are depleted twice with sheep anti-mouse Ig-coupled dynabeads (10^6 cells/ml, 6 beads/cell, 20 min at 4° C.) and magnetic cell separation. The purity of CD4 cells are routinely 91–95% as measured by flow cytometry.
Dendritic cells are generated from PBMC adhering to the culture flask (Costar), 10^8 cells/ml, 2 h at 37° C. (without Dynabeads). After extensive washing, adherent cells are cultured for 7 days in media containing 500 U/ml GM-CSF (Boehringer-Mannheim) and 12.5 U/ml IL-4 (Boehringer-Mannheim). The resulting cell population is weakly adherent and expresses surface markers characteristic of dendritic cells (positive for HLA-DR, CD86, CD83, CD11c and negative for CD4). (note:all antibodies obtained from Becton Dickinson, Calif.).
Cells are stimulated by three different methodologies 1) Dynabeads (M-450) covalently coupled to anti-CD3 (OKT-3) and anti-CD28 (9.3) antibodies (3×28 beads) according to the manufacturer's instructions (Dynal), 3 beads/cell, 2) Ionomycin (Calbiochem, La Jolla, Calif.) (100 ng/ml) and phorbol 12-myristate-13-acetate (PMA) (Calbiochem) (10 ng/ml), 3) allogeneic dendritic cells (25,000 dendritic cells/200,000 CD4 cells). All cells are stimulated at a concentration of 1×10^6 cells/ml. Cells are incubated with compounds of structure (I) (e.g., FR901228) (NCI, Bethesda, Md.) for 1 to 2 hours prior to stimulation as outlined above. Proliferation assays are conducted in quadruplicate in 96 well flat-bottom plates. Cells are stimulated at 1×10^6 cells/ml in a final volume of 200 μl. Proliferation is measured by MTT assay (MTT assay kit, Chemicon International Inc., Temecula, Calif.) at day 3 (stimulation method 1 and 2) or at day 6 (stimulation method 3), and results are presented as mean value of quadruplicates. PBL cultures or purified CD4 cell cultures are stimulated with 3×28 beads, ionomycin/PMA or allogenic dendritic cells. […] Further, […] cell survival is not affected by FR901228, as assessed by sub-G1 DNA measurement and integrity of the cell membrane (FIG. 5D). Lack of cytotoxicity of FR901228 is in agreement with results described by Byrd et al, Blood 94(4):1401–1408, 1999; Bates et al., Clinical Pharmacology, Programs and Proceedings of American Society of Clinical Oncology, Abstract 693, 1999; and Chassaing et al., J. Chrmatogr. B 719:169–176, 1998.

[2] = tested on: activation markers on CD4 cells; assay: Activation marker assays by flow cytometry; assay type: cell-based, human
Text: The effect of FR901228 on the induction of various activation markers on CD4 cells is studied. In this regard, cells are labeled with one or more of the following antibodies: anti-human CD4 Ab (Immunotech, Fullerton, Calif.), FITC-coupled anti-human CD11a Ab (Pharmingen), FITC-coupled anti-human CD26 Ab (Pharmingen), FITC-coupled anti-human CD49d Ab (Coulter), FITC-coupled anti-human CD54 Ab (Pharmingen and Becton Dickinson), FITC-coupled anti-human CD95 Ab (Pharmingen), FITC-coupled anti-human CD134 Ab (Pharmingen), FITC-coupled anti-human CD25 Ab (Becton Dickinson, Fullerton, Calif.), FITC-coupled anti-human CD69 Ab (Becton Dickinson), FITC- or PE-coupled anti-human CD154 Ab (Becton Dickinson), or FITC- or PE- coupled IgG1 isotype control Ab. Cells, 2×10^5 are labeled for 20 minutes at 4° C. with 2 μl of each antibody in a final volume of 30 μl, washed and resuspended in 1% parformaldehyde (Sigma, St. Louis, Mo.). […] In contrast, CD69 induction is not affected by 100 ng/ml FR901228 (FIG. 5C).

[3] = 3×28 beads, 20 ng/ml, FIGS. 8A–8B

C/C=C1\NC(=O)[C@H]2CSSCC/C=C/[C@H](CC(=O)N[C@H](C(C)C)C(=O)N2)OC(=O)[C@H](C(C)C)NC1=O [FR901228]
concentration with no significant effect on proliferation of CD4 cells ([1]; 3×28 beads): ≤ 1 ng/mL
lowest concentration that completely inhibits proliferation of CD4 cells ([1]; 3×28 beads): 10 ng/mL
T-cell proliferation on addition of IL-2 ([1]; addition of 100 U/ml IL-2): will not restore proliferation
lowest concentration that significantly inhibits proliferation induced by allogenic dendritic cells ([1]; allogenic dendritic cells, MTT day 6): 1 ng/ml
concentration with no significant effect on proliferation of CD4 cells ([1]; ionomycin/PMA): ≤ 1 ng/mL
lowest concentration that completely inhibits proliferation of CD4 cells ([1]; ionomycin/PMA): 10 ng/mL
inhibition of CD4 positive T-cell proliferation ([1]; stimulation by anti-CD3/anti-CD28 beads, FIG. 3): dose dependent inhibition
inhibition of CD4 positive T-cell proliferation ([1]; stimulation with in vitro generated allogenic dendritic cells, FIG. 4): dose dependent inhibition
CD69 induction ([2]; 100 ng/ml, FIG. 5C): not affected
CD69 induction or activation induced downregulation of CD62L [2, 3]: no significant affect
induction of CD25, CD134, CD137w, CD154, CD11a, CD54, and CD95 on CD4 T-cells [2, 3]: inhibition
lowest concentration at which CD154 expression is strongly suppressed ([2]; after 3×28 bead stimulation, FIG. 5A): 10 ng/mL
lowest concentration at which CD25 expression is strongly suppressed ([2]; after 3×28 bead stimulation, FIG. 5B): 10 ng/mL
